Patent US10966995B2, “Use of secoisolariciresinol diglucosides (SDGS) and related compounds for protection against radiation and chemical damage” (THE TRUSTEES OF THE UNIVERSITY OF PENNSYLVANIA, priority 2014, dated 2021)

How the values were obtained:
[1] = SDG pharmacokinetic study after oral gavage (plasma and lung); format: in vivo, mouse
Protocol: After selecting the 100 mg/kg dose as a dose that induces significant AOE expression while allowing for SDG to be detected in circulation, a pharmacokinetic study was performed to determine bioavailability and biological effects in target tissues (i.e., lung). Blood samples as well as tissues (lung, brain, liver, kidneys, spleen) were collected at 15 min, 30 min, and 1, 2, 4, 6, 8, 12 hours. SDG levels were determined as above in plasma and lung (FIGS. 41A-C). A single dose of 100 mg SDG/Kg was well absorbed and intact SDG was detectable in the circulation up to 6 hours post administration (FIG. 41A) and in flushed, blood-free lung tissues for 4 hours (FIG. 41B). […] The observed gene expression increase correlated with an increase in protein levels determined by western blotting (not shown). […] The use of SDG in human therapy is thus greatly facilitated and the toxicity risk is unlikely. Therefore a dose of 50-100 mg/Kg (1 or 2 mg SDG per day) is sufficient to induce the anticipated protective effects in target tissues and can be used for further study.

[2] = Scavenging of γ-radiation-induced hypochlorite (APF/HPF fluorescence in PBS)
Protocol: The fluorescence of ROS probes APF and HPF in PBS was measured at excitation/emission at 490 nm/515 nm in presence of hypochlorite or after γ-radiation exposure. Data is expressed as relative fluorescence units (RFU).

[3] = system: murine primary lung epithelial cells; assay: γ-H2AX foci immunostaining, epithelial cells; format: cell-based, mouse; details: SDG 50 μM 6 h prior IR; 2 Gy; irradiated control 46.7% at 30 min
Protocol: (§1) Fibroblasts and endothelial cells were isolated from C57/bl6 mouse. For fibroblast isolation, mouse lungs were harvested, minced, and incubated with dispase (2 mg/ml) for 45 minutes. Pieces were plated out and fibroblasts were cultured as described previously and used between passages 3 and 10. Pulmonary microvascular endothelial cells (PMVEC) were isolated from murine lungs as described previously. Briefly, freshly harvested mouse lungs were treated with collagenase followed by isolation of cells by adherence to magnetic beads coated with mAb to platelet endothelial cell adhesion molecule (PECAM). Epithelial cells (C10) cells were originally derived from a normal BALB/c mouse lung explant and are non-tumorigenic, contact-inhibited, and have alveolar type 2 cell features at early passage.
(§2) For immunostaining of γ-H2AX, cells were plated on glass coverslips (5,000 cells/coverslip), pre-treated (6 h) with 50 μM SDG and irradiated (2 Gy). At desired time interval, cells were fixed (4% para-formaldehyde), washed and blocked with PBST (PBS+0.1% TritonX-100 containing 5% goat serum, 1% BSA). Cells were incubated with γ-H2AX primary antibody (1:200) overnight at 4° C. followed by washing with PBST (3×5 min) and incubation with secondary antibody (Alexa Fluor® 488, Invitrogen, Calif., USA) for 1 hr at RT. Nuclei were counterstained with DAPI and visualized under fluorescence microscope.

[4] = system: human epithelial cells (A549); assay: BaP-induced oxidative DNA damage (8-oxo-dGuo, mass spectrometry); format: cell-based; details: SDG 10 μM; 25 μM BaP; 3 and 6 hours post carcinogen exposure
calf thymus DNA = assay: Radiation-induced calf thymus DNA fragmentation assay; format: biochemical; details: 50 Gy
Protocol: Plasmid DNA (pBR322) or calf thymus DNA samples with or without varying concentrations of SDG (R,R), SDG (S,S) and SDG (commercial) were exposed to γ-radiation with a Mark 1 cesium (Cs-137) irradiator (J. L. Shepherd, San Fernando, Calif.) at a dose rate of 1.7 Gy/min in phosphate buffered saline, pH 7.4 (PBS).
The effect of test compounds on radiation-induced strand breaks in DNA was determined using calf thymus DNA (Sigma, St. Louis, Mo.). DNA (500 ng) in PBS (pH 7.4) was mixed with varying concentrations (25-250 μM) of SDG (R,R), SDG (S,S) and SDG (commercial) and irradiated at 50 Gy for 30 min. A second series of experiments were performed at varying concentrations ranging from 0.5-10 μM. Samples were mixed with loading dye and subjected to agarose (1%) gel electrophoresis in TAE buffer (pH, 8.3) at 100 V. The gel was stained with ethidium bromide (0.5 μg/ml) for 40 min, washed for 20 min and then visualized on a UV trans-illuminator (Bio-Rad, Hercules, Calif.). The captured gel images were scanned and the density of the calf thymus DNA fragments was determined by Gel-Pro image analyzer program (Media Cybernetics, Silver Spring, Md.). The density of the low mol. wt (<6,000 bps) and the high mol. wt (>6,000 bps) fragments of calf thymus DNA was expressed as % of the total density (low mol wt.+high mol. wt.).

[5] = system: murine primary lung cells (epithelial, endothelial and WT fibroblasts); assay: Alkaline comet assay (DNA SSBs) in irradiated primary lung cells; format: cell-based, mouse; details: 2 Gy
Protocol: as §1
Exponentially growing cells were cultured and treated with SDG (50 μM) at different time intervals prior to irradiation (2 Gy). Cells were processed for comet assay as per manufacturer's instructions (Trevigen, Gaithersburg, Md.). […] At least 150 cells were scored per group. Visual analysis of cells and comet tail length was measured using Comet Image Analysis software (Comet Assay IV, Perceptive Instruments Ltd, Haverhill, UK) Images were captured on an Olympus IX51 fluorescence microscope using a monochrome CCD FireWire camera.

[6] = system: murine primary lung endothelial cells; assay: γ-H2AX foci immunostaining, endothelial cells; format: cell-based, mouse; details: SDG 50 μM 6 h prior IR; 2 Gy; irradiated control 33.6% at 30 min
Protocol: as §1, §2

[7] = 100 mg SDG/Kg oral, 30 minutes post-administration

SMILES: COc1cc(C[C@@H](CO[C@@H]2O[C@H](CO)[C@@H](O)[C@H](O)[C@H]2O)[C@H](CO[C@@H]2O[C@H](CO)[C@@H](O)[C@H](O)[C@H]2O)Cc2ccc(O)c(OC)c2)ccc1O [SDG, secoisolariciresinol diglucoside]
- Time SDG detectable in flushed, blood-free lung tissues ([1]; 100 mg SDG/Kg oral): 4 h
- Time intact SDG detectable in the circulation post administration ([1]; 100 mg SDG/Kg oral): up to 6 hours
- Lung tissue concentration of SDG [1, 7]: 12.6 µM
- Plasma concentration of SDG [1, 7]: 800 nM
- Absorption ([1]; single dose of 100 mg SDG/Kg, oral gavage): well absorbed
- Ratio APF/HPF [2]: decreased
- ClO^− generation from radiation exposure ([2]; 25 and 50 Gy): blunted
- γ-radiation-induced APF and HPF fluorescence ([2]; 50 Gy): dose-dependently decreased
- Initial slope for decrease of APF fluorescence ([2]; 50 Gy, SDG dose response): 1,816.30
- Initial slope for decrease of HPF fluorescence ([2]; 50 Gy, SDG dose response): 695.75
- γ-H2AX positive cells [3]: 22.7%±2.17
- Oxidative DNA damage (8-oxo-dGuo) [4]: decreased DNA damage
- Concentration at which maximum radioprotection of genomic DNA is achieved (calf thymus DNA): approximately 5.0 μM
- Radioprotective properties of SDG and metabolites compared (calf thymus DNA; 10 μM of each agent): equipotent
- Radiation-induced comet tail length ([5]; SDG 50 μM pre-treatment at all time intervals, all three cell types): significantly inhibited
- Pre-treatment time giving maximum protection against radiation-induced tail moment ([5]; SDG 50 μM, all cell types): 6 h
- γ-H2AX positive cells [6]: 21.92%±2.88
